According to ChEMBL document CHEMBL1201862, “PubChem BioAssay data set” (2004):
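Tested at 5 concentrations; 48 h exposure; 96-well plates; endpoints linearly interpolated, else capped at highest concentration. GI50 marks 50% less growth.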 The source made the active and inactive calls. Cut-off read from the data, not from the text of the source: active = GI50 up to about 1.1 µM and inactive = higher.

Assays:
Assay in all cases: DTP human tumour cell line panel, 48 h
ACHN = system: ACHN
EKVX = system: EKVX
HCT-116 = system: HCT-116
HOP-62 = system: HOP-62
IGROV-1 = system: IGROV-1
KM12 = system: KM12
M14 = system: M14
Malme-3M = system: Malme-3M
NCI-H460 = system: NCI-H460
OVCAR-5 = system: OVCAR-5
OVCAR-8 = system: OVCAR-8
SF-268 = system: SF-268
SF-295 = system: SF-295
SK-OV-3 = system: SK-OV-3
SNB-19 = system: SNB-19
SR = system: SR
TK-10 = system: TK-10
UACC-257 = system: UACC-257
UACC-62 = system: UACC-62
UO-31 = system: UO-31

Measured: GI50

O=Cc1cc2c(cc1-c1cc3c(cc1C=O)OCO3)OCO2
inactive: ACHN 71.8 µM | EKVX > 100 µM | HCT-116 58.7 µM | HOP-62 > 100 µM | IGROV-1 > 100 µM | KM12 83 µM | M14 > 100 µM | Malme-3M > 100 µM | NCI-H460 > 100 µM | OVCAR-5 > 100 µM | OVCAR-8 > 100 µM | SF-268 > 100 µM | SF-295 > 100 µM | SK-OV-3 > 100 µM | SNB-19 87.9 µM | SR 21 µM | TK-10 > 100 µM | UACC-257 > 100 µM | UACC-62 > 100 µM | UO-31 71.6 µM

CNc1ccc([N+](=O)[O-])cc1C(=O)N1CCC[C@H]1CO
inactive: ACHN > 100 µM | EKVX > 100 µM | HCT-116 > 100 µM | HOP-62 > 100 µM | IGROV-1 > 100 µM | KM12 > 100 µM | M14 > 100 µM | Malme-3M > 100 µM | NCI-H460 > 100 µM | OVCAR-5 > 100 µM | OVCAR-8 > 100 µM | SF-268 > 100 µM | SF-295 > 100 µM | SK-OV-3 > 100 µM | SNB-19 > 100 µM | SR > 100 µM | TK-10 > 100 µM | UACC-257 > 100 µM | UACC-62 > 100 µM | UO-31 > 100 µM

CCCCCCCCCc1cc(O)c(O)cc1CCCCCCCCC
inactive: ACHN > 10 µM | EKVX > 10 µM | HCT-116 > 10 µM | HOP-62 > 10 µM | IGROV-1 > 10 µM | KM12 > 10 µM | M14 > 10 µM | Malme-3M > 10 µM | NCI-H460 > 10 µM | OVCAR-5 > 10 µM | OVCAR-8 > 10 µM | SF-268 > 10 µM | SF-295 > 10 µM | SK-OV-3 > 10 µM | SNB-19 > 10 µM | SR > 10 µM | TK-10 > 10 µM | UACC-257 > 10 µM | UACC-62 > 10 µM | UO-31 > 10 µM

Fc1cccc(Cl)c1C1SCc2nc3ccccc3n21 (stereo not given)
inactive: ACHN 39.2 µM | EKVX 26.4 µM | HCT-116 22.4 µM | HOP-62 33.2 µM | IGROV-1 29.1 µM | KM12 24.8 µM | M14 34 µM | Malme-3M 14.8 µM | NCI-H460 33 µM | OVCAR-5 31.8 µM | OVCAR-8 38.1 µM | SF-268 50.5 µM | SF-295 23.7 µM | SK-OV-3 22.9 µM | SNB-19 46.1 µM | SR 17.3 µM | TK-10 57 µM | UACC-257 21.9 µM | UACC-62 15.7 µM | UO-31 27.9 µM

CCOC(=O)c1c2cccccc-2nc1Nc1cccc2c(C)ccnc12
inactive: ACHN 6.14 µM | EKVX > 10 µM | HCT-116 5.12 µM | HOP-62 > 10 µM | IGROV-1 4.82 µM | KM12 > 10 µM | M14 > 10 µM | Malme-3M > 10 µM | NCI-H460 7.31 µM | OVCAR-5 > 10 µM | OVCAR-8 > 10 µM | SF-268 > 10 µM | SF-295 > 10 µM | SK-OV-3 > 10 µM | SNB-19 > 10 µM | SR 9.95 µM | TK-10 > 10 µM | UACC-257 9.2 µM | UACC-62 9.77 µM | UO-31 9.16 µM

COC1OC(CO)C(O)C(OC(=O)c2cc(O)c(O)c(O)c2)C1OC(=O)c1cc(O)c(O)c(O)c1 (stereo not given)
inactive: ACHN 58.2 µM | EKVX > 100 µM | HCT-116 37.7 µM | HOP-62 91 µM | IGROV-1 > 100 µM | KM12 > 100 µM | M14 45.4 µM | Malme-3M > 100 µM | NCI-H460 69.5 µM | OVCAR-5 > 100 µM | OVCAR-8 > 100 µM | SF-268 59.4 µM | SF-295 20.2 µM | SK-OV-3 > 100 µM | SNB-19 > 100 µM | SR 53.7 µM | TK-10 > 100 µM | UACC-257 95.3 µM | UACC-62 > 10 µM | UO-31 > 100 µM

Fc1cc(-c2cc(-c3ccccc3)no2)c(Cl)cc1Cl
inactive: ACHN > 35.2 µM | EKVX 11.4 µM | HCT-116 13.8 µM | HOP-62 22.7 µM | IGROV-1 12.7 µM | KM12 16.2 µM | M14 23.1 µM | Malme-3M 19.2 µM | NCI-H460 16.7 µM | OVCAR-5 1.29 µM | OVCAR-8 > 26.8 µM | SF-268 19.4 µM | SF-295 22.5 µM | SK-OV-3 > 32.5 µM | SNB-19 > 40.6 µM | SR 13.9 µM | TK-10 > 34.7 µM | UACC-257 > 56.8 µM | UACC-62 43.2 µM | UO-31 > 38.5 µM
